Measurements from publication PMC5443859, “EGFR-targeting peptide-coupled platinum(IV) complexes” (Journal of Biological Inorganic Chemistry, 2017).

How the values were obtained:
A431 cells = experiment: Long-term clonogenic assay, 14 days; type: cell-based, human; settings: 25 and 50 µM, crystal violet, three experiments in duplicates, result in words
Method: Subsequently, the dissolved drugs were added.

RUMH cells = experiment: cells; type: cell-based; settings: Homo sapiens, EGFR/wt overexpression, 72 h treatment, MTT assay
Method: (§1) The following human cell models were used in this study: the renal cell carcinomas RUMH, the squamous cell carcinoma H520, the epidermoid carcinoma A431, as well as the non-small-cell lung cancer (NSCLC) line HCC827 (sources and used medium are summarized in (Table 2). Unless otherwise indicated, the cells were cultivated in humidified incubators (37 °C, 21% O2, 5% CO2) in full culture medium, containing 10% fetal calf serum (PAA, Linz, Austria). Cell cultures were periodically checked for Mycoplasma contamination.
(§2) Subsequently, the dissolved drugs were added. […] Cytotoxicity was expressed as IC50 values calculated from full dose–response curves using GraphPad Prism software. […] Then, the cells were exposed to the indicated drugs (25 or 50 µM) for 14 days. After washing with phosphate-buffered saline (PBS), the cells were fixed with methanol (−20 °C, 20 min) and after another washing step stained with crystal violet (1 h). […] The sum of fluorescence intensities per well was measured with ImageJ and, after blank subtraction, normalized to the untreated cells.

H520 cells = experiment: cells; settings: Homo sapiens, NCI-H520, 72 h, read-out: IC50 ± SD
Method: as §1, §2

SMILES | long-term treatment effect, normalized to untreated cells (A431 cells) | IC50 (RUMH cells) [µM] | IC50 (H520 cells) [µM]
O=C1[O][Pt]2([NH][C@@H]3CCCC[C@H]3[NH]2)[O]C1=O [oxaliplatin] | too low to be seen in this graph |  | 
C#Cc1cccc(Nc2ncnc3cc(OCCOC)c(OCCOC)cc23)c1 [Erlotinib, erlotinib] |  | 23 ± 2.6 | > 25
